# Source: ChEMBL document CHEMBL3045023, “Design, synthesis, and antiviral activity evaluation of phenanthrene-based antofine derivatives” (2012)
# Test system: Tobacco mosaic virus
# Assay: Antiviral activity against Tobacco mosaic virus (TMV) assessed as inhibition of viral growth at 1 ug/mL
# Format: functional
# Details: read-out: GI
row,Compound,inhibition of growth at 1 µg/mL
1,COc1ccc2c3c(c4cc(OC)c(OC)cc4c2c1)C[C@H]1CCCN1C3 [(-)-ANTOFINE],63%
2,COc1cc2c3c(c4ccc(O)cc4c2cc1OC)CN1CCC[C@@H]1C3,70%
